Laboratory results taken from patent publication US20230158025A1 (UNIVERSITY OF UTAH RESEARCH FOUNDATION, priority 2020, published 2023).
Like-named read-outs stand apart in the source and are kept apart here.

Experiments:
[1] = aqueous kinetic solubility
recombinant mouse GALK1 = recombinant mouse GALK1 (Mus musculus, UniProt Q9R0N0); assay: mGALK1 biochemical activity assay (Kinase-Glo Plus, ATP depletion)
Summary of the method: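 Recombinant GALK1 (5 nM) with 100 μM galactose; GALK1 turnover read as ATP depletion by Kinase-Glo Plus luminescence. Reaction ran 1 h at room temperature before detection reagent was added.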

recombinant human GALK1 = recombinant human GALK1 (Homo sapiens, UniProt P51570); assay: hGALK1 biochemical activity assay (Kinase-Glo Plus, ATP depletion)
Sequence of recombinant human GALK1 (P51570 whole entry): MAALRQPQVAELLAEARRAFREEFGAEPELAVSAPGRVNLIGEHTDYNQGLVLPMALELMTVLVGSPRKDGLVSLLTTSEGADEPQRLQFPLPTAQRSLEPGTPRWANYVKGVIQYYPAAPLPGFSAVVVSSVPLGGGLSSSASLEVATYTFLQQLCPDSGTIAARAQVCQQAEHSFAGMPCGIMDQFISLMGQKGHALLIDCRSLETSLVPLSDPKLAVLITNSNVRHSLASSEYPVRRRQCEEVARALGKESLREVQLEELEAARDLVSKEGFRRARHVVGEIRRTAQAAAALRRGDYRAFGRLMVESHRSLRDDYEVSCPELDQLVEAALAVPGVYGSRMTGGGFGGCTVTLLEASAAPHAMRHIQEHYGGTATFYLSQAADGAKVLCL
Summary of the method: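 Turnover is measured as ATP depletion by Kinase-Glo Plus luminescence after a 1 h room-temperature reaction. Compounds span 11 concentrations, 57.4 μM–0.97 nM, in final 20 mM HEPES pH 8.0 with 5 mM MgCl2. The substrate solution held 35 μM ATP; the added solution held 5 nM human or mouse GALK1 and 100 μM galactose.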

[2] = rat microsomal stability (RLM); conditions: for half-life: rat, rat liver microsomes
hGALK1m = molecular target: T1, hGALK1m (Homo sapiens, UniProt P51570, E253A/K252A); assay: in vitro hGALK1 activity assay of the structure-based optimisation (Example 12, Tables 17-20); assay type: biochemical; conditions: for fold decrease of potency versus parent compound: loss of potency relative to the unsubstituted parent
T1 construct: made in house; host or cells: E. coli HMS174
T1 sequence (P51570 whole entry K252A/E253A): as the sequence (P51570 whole entry) above, with K252A, E253A counted along it
Description: In vitro hGALK1 activity assays were performed as previously described. Liu et al., Bioorg. Med. Chem. Lett. 25(3): 721-727 (2015), which is incorporated by reference herein for the specific teachings thereof. The biochemical assay was performed by coupling the activity of recombinant human or mouse GALK1 to the Kinase-Glo Plus luminescent ATP detection kit, using ATP depletion as a measure of GALK1 turnover. Specifically, three μL/well of ATP substrate solution (35 μM ATP) in assay buffer (20 mM HEPES pH 8.0, 5 mM MgCl2, 60 mM NaCl, 1 mM DTT, 0.01% BSA final concentration) was dispensed into 1536-well assay plates (Greiner, white solid-bottom medium-binding plates). Aliquots of compound (23 nL solubilized in DMSO) were transferred to the assay plates using a Kalypsys 1536-well pintool such that 11 concentrations with 1/3 dilutions ranging from 57.4 μM-0.97 nM are tested. One μL/well of GALK-galactose solution (5 nM GALK1, 100 μM galactose) in assay buffer was then added, yielding a final reaction volume of 4 μL/well. Following a 1-hour room temperature incubation, 4 μL of Kinase-Glo Plus detection reagent was added to provide an ATP-dependent luminescent readout (final assay volume: 8 μL/well). Luminescence was detected using a ViewLux plate reader (PerkinElmer) after a 10-minute incubation, using a 1 second exposure time and 2× binning.
The in vitro hGALK1 activity assay was performed as previously described. Liu et al., Bioorg. Med. Chem. Lett. 25(3): 721-727 (2015). For the measurement of cellular Gal-1P reduction, compounds at different concentrations were added to cultured patient fibroblast at 80% confluency. After incubating the compounds for 16 hours, 10 mM galactose was added to the culture. After another 4 hours, cells were washed with cold PBS buffer 3× and harvested for gal-1P measurement, according to the previously published method. Liu et al., Bioorg. Med. Chem. Lett. 25(3): 721-727 (2015).

[3] = PAMPA, ADME P: PAMPA permeability (class), Tables 17-19, class probably colour-coded, colour lost
[4] = Tables 2-15, 35 μM ATP, 100 μM galactose, 1 h, bracketed figure after some values is undefined and not reported, read-out: mGALK IC50
[5] = recombinant mouse GALK1, Kinase-Glo Plus ATP depletion, read-out: mGALK
[6] = Tables 2-15, 35 μM ATP, 100 μM galactose, 1 h, bracketed figure after some values (e.g. −1.2) is undefined and not reported, read-out: hGALK IC50
[7] = recombinant human GALK1, Kinase-Glo Plus ATP depletion, read-out: hGALK
[8] = 1 h, Table 17, read-out: Efficacy
[9] = Table 17, amide group optimization, no unit in table
[10] = Tables 18-20 and text of Example 12
[11] = Tables 2-15, 35 μM ATP, 100 μM galactose, 1 h, bracketed figure after some values is undefined and not reported
[12] = recombinant mouse GALK1, Kinase-Glo Plus ATP depletion
[13] = Tables 18-19, read-out: Max Response (%)
[14] = Tables 18-19 and text of Example 12

Sequence of recombinant mouse GALK1 (Q9R0N0 whole entry): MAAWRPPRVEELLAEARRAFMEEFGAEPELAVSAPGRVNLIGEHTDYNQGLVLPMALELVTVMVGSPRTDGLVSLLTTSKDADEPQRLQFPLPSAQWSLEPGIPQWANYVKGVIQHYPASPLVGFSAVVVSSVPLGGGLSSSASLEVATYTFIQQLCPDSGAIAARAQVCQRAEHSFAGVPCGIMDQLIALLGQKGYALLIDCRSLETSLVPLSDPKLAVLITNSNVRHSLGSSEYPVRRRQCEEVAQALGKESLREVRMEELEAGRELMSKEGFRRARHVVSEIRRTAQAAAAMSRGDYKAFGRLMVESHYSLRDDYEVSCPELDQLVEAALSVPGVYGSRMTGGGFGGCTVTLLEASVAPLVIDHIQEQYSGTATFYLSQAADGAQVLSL

Papp (PAMPA permeability; [3]) [×10⁻⁶ cm/s] | Sol. ([1]; aqueous kinetic solubility) [µg/mL] | IC50 (recombinant mouse GALK1; [4]) [µM] | IC50 (recombinant mouse GALK1; [5]) [µM] | IC50 (recombinant human GALK1; [6]) [µM] | IC50 (recombinant human GALK1; [7]) [µM] | Metab. Stabil. (m) ([2]; microsomal stability half-life) | half-life [2] [min] | Emax (hGALK1m; [8]) [%] | IC50 (hGALK1m; [9]) [µM] | Sol. [1] [µg/mL] | Metab. Stabil. (m) ([2]; microsomal half-life) | Perm. (1 × 10^−6 cm/sec) (PAMPA permeability) | change of potency versus parent compound (in words) (hGALK1m) | Emax (hGALK1m; [13]) [%] | IC50 (hGALK1m; [14]) [µM] | Structure (SMILES) | also measured
< 10 | <1 | 12.2 | 12.2 | 1.93 | 1.93 | 6.432 | < 10 | 84 | 1.2 | – | – | – | – | – | – | CC1=C(C(=O)NCc2cncs2)C(c2ccccc2Cl)N=C(Nc2nc3ccccc3o2)N1 (stereo not drawn) [Compound 232, 2-(benzo[d]oxazol-2-ylamino)-4-(2-chlorophenyl)-6-methyl-N-(thiazol-5-ylmethyl)-1,4-dihydropyrimidine-5-carboxamide] | Perm. (1 × 10^−6 cm/sec) (PAMPA permeability; PAMPA): 507.4 1 × 10^−6 cm/sec
– | – | 2.17 | 2.17 | 0.22 | 0.22 | – | – | – | – | 4.47 | 14.13 | – | – | – | – | CC1=C(C(=O)NCc2cnn(C)c2)C(c2ccc(C)cc2Cl)N=C(Nc2nc3cccc(N)c3o2)N1 (racemic) [Compound 83, 2-((7-aminobenzo[d]oxazol-2-yl)amino)-4-(2-chloro-4-methylphenyl)-6-methyl-N-((1-methyl-1H-pyrazol-4-yl)methyl)-1,4-dihydropyrimidine-5-carboxamide] | Papp (PAMPA permeability; PAMPA, Perm. (1 × 10^−6 cm/sec)): 25.3 ×10⁻⁶ cm/s; IC50 (hGALK1m; [10]): 0.047 µM
< 10 | – | – | – | 19.3 | 19.3 | – | < 10 | – | – | 60.1 | >30 | <1 1 × 10^−6 cm/sec | compromised the potency | 90 | > 15 | CC1=C(C(=O)Nc2cc(C(=O)O)ccn2)C(c2cccc(C(F)(F)F)c2)N=C(Nc2nc3ccc(F)cc3o2)N1 (stereo not drawn) [Compound 77, 2-(2-((6-fluorobenzo[d]oxazol-2-yl)amino)-6-methyl-4-(3-(trifluoromethyl)phenyl)-1,4-dihydropyrimidine-5-carboxamido)isonicotinic acid] | mGALK IC50 (recombinant mouse GALK1; [11]): inactive; mGALK (μM) (recombinant mouse GALK1; [12]): in- active
< 10 | – | 9.68 | 9.68 | 1.93 | – | – | < 10 | – | – | 57.5 | >30 | <1 1 × 10^−6 cm/sec | did not change the potency | 100 | 1 | CC1=C(C(=O)Nc2cc(C(=O)O)ccn2)C(c2ccccc2Cl)N=C(Nc2nc3cccc(Cl)c3o2)N1 (stereo not drawn) [Compound 17, 2-(2-((7-chlorobenzo[d]oxazol-2-yl)amino)-4-(2-chlorophenyl)-6-methyl-1,4-dihydropyrimidine-5-carboxamido)isonicotinic acid] | –
< 10 | – | – | – | – | – | – | < 10 | – | – | 47.8 | >30 | – | greatly compromised the potencies | 88 | > 15 | CC1=C(C(=O)Nc2cc(C(=O)O)ccn2)C(c2ccccc2Cl)N=C(Nc2nc3cccc(OC(F)(F)F)c3o2)N1 (stereo not drawn) [Compound 21, 2-(4-(2-chlorophenyl)-6-methyl-2-((7-(trifluoromethoxy)benzo[d]oxazol-2-yl)amino)-1,4-dihydropyrimidine-5-carboxamido)isonicotinic acid] | mGALK IC50 (recombinant mouse GALK1; [11]): inactive; mGALK (μM) (recombinant mouse GALK1; [12]): in- active; hGALK IC50 (recombinant human GALK1; Tables 2-15, 35 μM ATP, 100 μM galactose, 1 h, bracketed figure after some values (e.g. −1.2) is undefined and not reported): inactive; hGALK (μM) (recombinant human GALK1; recombinant human GALK1, Kinase-Glo Plus ATP depletion): in- active
< 10 | – | 17.2 | 17.2 | 5.44 | – | – | < 10 | – | – | 34.42 | >30 | <1 1 × 10^−6 cm/sec | – | 100 | 6.9 | CC1=C(C(=O)Nc2cc(C(=O)O)ccn2)C(c2ccccc2Cl)N=C(Nc2nc3ccc(C)cc3o2)N1 (stereo not drawn) [Compound 6, 2-(4-(2-chlorophenyl)-6-methyl-2-((6-methylbenzo[d]oxazol-2-yl)amino)-1,4-dihydropyrimidine-5-carboxamido)isonicotinic acid] | fold decrease of potency versus parent compound (hGALK1m): ~7 fold
< 10 | <1 | 6.11 | 6.11 | 1.53 | – | >30 | < 10 | 100 | 1.4 | – | – | – | – | – | – | CC1=C(C(=O)Nc2ccc(C(=O)O)cc2)C(c2ccccc2Cl)N=C(Nc2nc3ccccc3o2)N1 (stereo not drawn) [Compound 143, 4-(2-(benzo[d]oxazol-2-ylamino)-4-(2-chlorophenyl)-6-methyl-1,4-dihydropyrimidine-5-carboxamido)benzoic acid] | Perm. (1 × 10^−6 cm/sec) (PAMPA permeability; PAMPA): 3.6 1 × 10^−6 cm/sec
< 10 | – | 3.85 | 3.85 | 0.54 | – | – | < 10 | – | – | 36.0 | >30 | – | little impact on the potency | 100 | – | CC1=C(C(=O)Nc2cc(C(=O)O)ccn2)C(c2ccccc2Br)N=C(Nc2nc3ccc(F)cc3o2)N1 (stereo not drawn) [Compound 75, 2-(4-(2-bromophenyl)-2-((6-fluorobenzo[d]oxazol-2-yl)amino)-6-methyl-1,4-dihydropyrimidine-5-carboxamido)isonicotinic acid] | IC50 (hGALK1m; [10]): 0.235 µM
< 10 | – | – | – | – | 21.7 | – | < 10 | – | – | 65.7 | >30 | <1 1 × 10^−6 cm/sec | greatly compromised the potencies | 80 | > 15 | COc1cccc2nc(NC3=NC(c4ccccc4Cl)C(C(=O)Nc4cc(C(=O)O)ccn4)=C(C)N3)oc12 (stereo not drawn) [Compound 22, 2-(4-(2-chlorophenyl)-2-((7-methoxybenzo[d]oxazol-2-yl)amino)-6-methyl-1,4-dihydropyrimidine-5-carboxamido)isonicotinic acid] | mGALK IC50 (recombinant mouse GALK1; [11]): inactive; mGALK (μM) (recombinant mouse GALK1; [12]): in- active; fold decrease of potency versus parent compound (hGALK1m): 3.6 fold
< 10 | <1 | 13.7 | 13.7 | 10.9 | – | 24 | < 10 | 57 | 6.9 | – | – | – | – | 100 | 0.97 | CC1=C(C(=O)Nc2ccccc2)C(c2ccccc2Cl)N=C(Nc2nc3ccccc3o2)N1 (stereo not drawn) [Compound 137, 2-(benzo[d]oxazol-2-ylamino)-4-(2-chlorophenyl)-6-methyl-N-phenyl-1,4-dihydropyrimidine-5-carboxamide] | –
< 10 | 23.0 | 13.7 | 13.7 | – | 15.3 | 6.415 | < 10 | 94 | 11 | – | – | – | – | – | – | CC1=C(C(=O)NCc2nccn2C)C(c2ccccc2Cl)N=C(Nc2nc3ccccc3o2)N1 (stereo not drawn) [Compound 231] | Perm. (1 × 10^−6 cm/sec) (PAMPA permeability; PAMPA): >1113 1 × 10^−6 cm/sec
